Results reported in ChEMBL document CHEMBL1152878, “N-Hydroxy-1,2-disubstituted-1H-benzimidazol-5-yl acrylamides as novel histone deacetylase inhibitors: design, synthesis, SAR studies, and in vivo antitumor activity” (Bioorg Med Chem Lett, 2009).

Experiments:
[1] = Toxicity in ip dosed athymic mouse assessed as maximum tolerated dose; assay type: organism-based; conditions: in vivo
Mus musculus [2] = assay: Toxicity in athymic xenografted with human HCT116 cells mouse assessed as maximum body weight loss at 200 mg/kg, po qd for 21 days measured on day 7; assay type: organism-based, HCT-116; set-up: dose 200 mg/kg, route oral; conditions: in vivo, 504 h
[3] = biological target: T1, Protein deacetylase HDAC6 (Homo sapiens, UniProt Q9UBN7); assay: Inhibition of recombinant HDAC6 by fluorimetric assay
T1 sequence (Q9UBN7 whole entry): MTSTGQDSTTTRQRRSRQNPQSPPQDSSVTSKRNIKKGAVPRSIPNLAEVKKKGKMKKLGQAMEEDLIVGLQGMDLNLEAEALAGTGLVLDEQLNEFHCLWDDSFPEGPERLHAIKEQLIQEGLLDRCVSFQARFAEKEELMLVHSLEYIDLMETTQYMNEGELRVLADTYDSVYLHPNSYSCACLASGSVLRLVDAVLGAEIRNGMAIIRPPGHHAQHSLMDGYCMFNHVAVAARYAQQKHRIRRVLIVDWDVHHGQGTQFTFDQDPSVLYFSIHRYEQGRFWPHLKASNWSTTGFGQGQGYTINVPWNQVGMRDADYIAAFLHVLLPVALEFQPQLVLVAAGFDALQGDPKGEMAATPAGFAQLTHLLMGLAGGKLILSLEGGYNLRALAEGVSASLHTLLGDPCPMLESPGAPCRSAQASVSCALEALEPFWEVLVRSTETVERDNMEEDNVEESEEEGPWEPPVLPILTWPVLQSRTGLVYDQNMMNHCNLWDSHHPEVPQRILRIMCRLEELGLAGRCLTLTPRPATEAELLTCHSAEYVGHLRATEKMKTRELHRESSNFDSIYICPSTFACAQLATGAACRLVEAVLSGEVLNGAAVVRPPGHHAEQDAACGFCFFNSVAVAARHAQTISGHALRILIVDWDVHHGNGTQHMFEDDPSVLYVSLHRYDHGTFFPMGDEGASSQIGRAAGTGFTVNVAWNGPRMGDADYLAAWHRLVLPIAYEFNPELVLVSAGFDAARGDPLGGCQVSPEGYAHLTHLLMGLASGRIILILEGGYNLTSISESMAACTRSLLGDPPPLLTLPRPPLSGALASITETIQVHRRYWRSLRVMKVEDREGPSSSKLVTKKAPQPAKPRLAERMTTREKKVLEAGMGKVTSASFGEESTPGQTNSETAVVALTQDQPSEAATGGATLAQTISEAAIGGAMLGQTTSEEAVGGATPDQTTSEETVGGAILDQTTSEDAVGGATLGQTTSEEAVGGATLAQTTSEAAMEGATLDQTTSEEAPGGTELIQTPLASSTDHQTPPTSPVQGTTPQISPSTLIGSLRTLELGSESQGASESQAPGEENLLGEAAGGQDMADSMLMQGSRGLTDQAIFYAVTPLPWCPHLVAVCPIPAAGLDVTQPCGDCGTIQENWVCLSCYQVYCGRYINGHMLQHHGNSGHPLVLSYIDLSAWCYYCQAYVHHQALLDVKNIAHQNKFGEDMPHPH

[4] = Oral bioavailability in mouse at 50 mg/kg; assay type: ADME, organism-based; conditions: in vivo
HCT-116 [5] = assay: Antitumor activity against human HCT116 cells xenografted in athymic mouse assessed as tumor growth inhibition at 100 mg/kg, po qd for 21 days measured on day 21; assay type: functional; conditions: HCT-116, 504 h, read-out: TGI
Mus musculus [6] = assay: Toxicity in athymic mouse xenografted with human HCT116 cells assessed as maximum body weight loss at 130 mg/kg, ip qd for 21 measured on day 19; assay type: organism-based, HCT-116; set-up: dose 130 mg/kg, route intraperitoneal; conditions: in vivo
HCT-116 [7] = assay: Antitumor activity against human HCT116 cells xenografted in athymic mouse assessed as tumor growth inhibition at 130 mg/kg, ip qd for 21 days measured on day 22; assay type: functional; conditions: HCT-116, ip, route intraperitoneal, read-out: TGI
Histone deacetylase 3 = Histone deacetylase 3 (Homo sapiens, UniProt O15379); assay: Inhibition of recombinant HDAC3 by fluorimetric assay
Histone deacetylase 8 = biological target: T2, Histone deacetylase 8 (Homo sapiens, UniProt Q9BY41); assay: Inhibition of recombinant HDAC8 by fluorimetric assay
T2 sequence (Q9BY41 whole entry): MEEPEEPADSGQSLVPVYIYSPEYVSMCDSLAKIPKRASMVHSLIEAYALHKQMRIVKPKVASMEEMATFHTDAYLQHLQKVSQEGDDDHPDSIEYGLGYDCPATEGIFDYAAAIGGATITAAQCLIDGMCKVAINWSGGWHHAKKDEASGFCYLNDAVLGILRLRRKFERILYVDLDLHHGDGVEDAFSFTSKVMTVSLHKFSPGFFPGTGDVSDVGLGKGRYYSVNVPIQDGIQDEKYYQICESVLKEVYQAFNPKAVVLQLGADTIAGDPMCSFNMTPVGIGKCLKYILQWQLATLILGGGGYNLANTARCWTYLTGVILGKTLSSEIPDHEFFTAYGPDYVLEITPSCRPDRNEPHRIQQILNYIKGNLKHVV

Histone deacetylase 11 = biological target: T3, Histone deacetylase 11 (Homo sapiens, UniProt Q96DB2); assay: Inhibition of recombinant HDAC11 by fluorimetric assay
T3 sequence (Q96DB2 whole entry): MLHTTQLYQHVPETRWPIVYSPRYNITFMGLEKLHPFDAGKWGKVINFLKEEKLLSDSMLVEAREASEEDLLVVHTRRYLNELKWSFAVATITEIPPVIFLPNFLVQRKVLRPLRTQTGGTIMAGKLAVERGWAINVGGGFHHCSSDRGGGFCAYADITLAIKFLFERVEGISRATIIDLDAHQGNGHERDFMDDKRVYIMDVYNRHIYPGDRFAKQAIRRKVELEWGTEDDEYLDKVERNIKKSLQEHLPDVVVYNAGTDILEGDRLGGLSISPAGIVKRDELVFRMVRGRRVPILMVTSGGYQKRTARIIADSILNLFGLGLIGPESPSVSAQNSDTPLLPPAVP

COLO 205 = assay: Antiproliferative activity against human COLO205 cells after 96 hrs by celltiter assay; assay type: functional, cell-based; conditions: COLO 205, 96 h
Histone deacetylase 4 = Histone deacetylase 4 (Homo sapiens, UniProt P56524); assay: Inhibition of recombinant HDAC4 by fluorimetric assay
Mus musculus [8] = assay: Toxicity in athymic mouse xenografted with human HCT116 cells assessed as maximum body weight loss at 70 mg/kg, ip qd for 21 days measured on day 15; assay type: organism-based, HCT-116; set-up: dose 70 mg/kg, route intraperitoneal; conditions: in vivo, 504 h
Histone deacetylase 5 = Histone deacetylase 5 (Homo sapiens, UniProt Q9UQL6); assay: Inhibition of recombinant HDAC5 by fluorimetric assay
HCT-116 [9] = assay: Antitumor activity against human HCT116 cells xenografted in athymic mouse assessed as tumor growth inhibition at 70 mg/kg, ip qd for 21 days measured on day 22; assay type: functional; conditions: HCT-116, ip, route intraperitoneal, read-out: TGI
HCT-116 [10] = assay: Antitumor activity against human HCT116 cells xenografted in athymic mouse assessed as tumor growth inhibition at 200 mg/kg, po qd for 21 days measured on day 21; assay type: functional; conditions: HCT-116, 504 h, read-out: TGI
Histone deacetylase 9 = Histone deacetylase 9 (Homo sapiens, UniProt Q9UKV0); assay: Inhibition of recombinant HDAC9 by fluorimetric assay
Mus musculus [11] = assay: Toxicity in athymic mouse xenografted with human HCT116 cells assessed as maximum body weight loss at 100 mg/kg, po qd for 21 days; assay type: organism-based, HCT-116; set-up: dose 100 mg/kg, route oral; conditions: in vivo, 504 h
[12] = Cmax in mouse at 50 mg/kg, po; assay type: ADME, organism-based; set-up: dose 50 mg/kg, route oral; conditions: in vivo
[13] = Solubility at pH 6.5; assay type: physicochemical; conditions: buffer
[14] = Lipophilicity, log D at pH 7.3; assay type: physicochemical; conditions: buffer

Sequence of Histone deacetylase 9 (Q9UKV0 whole entry): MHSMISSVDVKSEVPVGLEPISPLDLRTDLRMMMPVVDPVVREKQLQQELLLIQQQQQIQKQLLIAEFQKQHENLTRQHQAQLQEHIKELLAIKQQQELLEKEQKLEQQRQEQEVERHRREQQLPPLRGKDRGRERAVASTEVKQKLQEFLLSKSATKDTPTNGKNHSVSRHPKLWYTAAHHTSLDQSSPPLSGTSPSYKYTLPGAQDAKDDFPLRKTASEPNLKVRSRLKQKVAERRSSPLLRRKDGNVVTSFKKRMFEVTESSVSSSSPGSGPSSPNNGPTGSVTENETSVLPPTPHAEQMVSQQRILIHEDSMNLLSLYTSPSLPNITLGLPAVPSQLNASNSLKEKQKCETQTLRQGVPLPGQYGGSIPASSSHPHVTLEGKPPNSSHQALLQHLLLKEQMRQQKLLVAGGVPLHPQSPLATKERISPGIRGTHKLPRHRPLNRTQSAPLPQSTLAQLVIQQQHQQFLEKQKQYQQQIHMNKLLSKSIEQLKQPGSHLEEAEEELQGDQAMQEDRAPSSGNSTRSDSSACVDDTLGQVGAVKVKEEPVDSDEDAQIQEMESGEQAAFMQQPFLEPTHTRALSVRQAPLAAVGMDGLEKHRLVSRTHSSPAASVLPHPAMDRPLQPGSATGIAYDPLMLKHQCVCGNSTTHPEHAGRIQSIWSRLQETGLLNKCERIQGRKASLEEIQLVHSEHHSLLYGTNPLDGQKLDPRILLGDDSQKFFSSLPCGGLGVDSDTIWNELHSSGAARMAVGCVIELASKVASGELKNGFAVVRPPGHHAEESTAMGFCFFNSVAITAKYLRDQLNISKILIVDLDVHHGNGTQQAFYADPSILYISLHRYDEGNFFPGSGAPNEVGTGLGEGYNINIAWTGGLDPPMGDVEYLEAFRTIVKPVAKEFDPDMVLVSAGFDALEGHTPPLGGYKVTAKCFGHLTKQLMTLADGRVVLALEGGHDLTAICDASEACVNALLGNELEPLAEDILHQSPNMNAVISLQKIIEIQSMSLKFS
Sequence of Histone deacetylase 4 (P56524 whole entry): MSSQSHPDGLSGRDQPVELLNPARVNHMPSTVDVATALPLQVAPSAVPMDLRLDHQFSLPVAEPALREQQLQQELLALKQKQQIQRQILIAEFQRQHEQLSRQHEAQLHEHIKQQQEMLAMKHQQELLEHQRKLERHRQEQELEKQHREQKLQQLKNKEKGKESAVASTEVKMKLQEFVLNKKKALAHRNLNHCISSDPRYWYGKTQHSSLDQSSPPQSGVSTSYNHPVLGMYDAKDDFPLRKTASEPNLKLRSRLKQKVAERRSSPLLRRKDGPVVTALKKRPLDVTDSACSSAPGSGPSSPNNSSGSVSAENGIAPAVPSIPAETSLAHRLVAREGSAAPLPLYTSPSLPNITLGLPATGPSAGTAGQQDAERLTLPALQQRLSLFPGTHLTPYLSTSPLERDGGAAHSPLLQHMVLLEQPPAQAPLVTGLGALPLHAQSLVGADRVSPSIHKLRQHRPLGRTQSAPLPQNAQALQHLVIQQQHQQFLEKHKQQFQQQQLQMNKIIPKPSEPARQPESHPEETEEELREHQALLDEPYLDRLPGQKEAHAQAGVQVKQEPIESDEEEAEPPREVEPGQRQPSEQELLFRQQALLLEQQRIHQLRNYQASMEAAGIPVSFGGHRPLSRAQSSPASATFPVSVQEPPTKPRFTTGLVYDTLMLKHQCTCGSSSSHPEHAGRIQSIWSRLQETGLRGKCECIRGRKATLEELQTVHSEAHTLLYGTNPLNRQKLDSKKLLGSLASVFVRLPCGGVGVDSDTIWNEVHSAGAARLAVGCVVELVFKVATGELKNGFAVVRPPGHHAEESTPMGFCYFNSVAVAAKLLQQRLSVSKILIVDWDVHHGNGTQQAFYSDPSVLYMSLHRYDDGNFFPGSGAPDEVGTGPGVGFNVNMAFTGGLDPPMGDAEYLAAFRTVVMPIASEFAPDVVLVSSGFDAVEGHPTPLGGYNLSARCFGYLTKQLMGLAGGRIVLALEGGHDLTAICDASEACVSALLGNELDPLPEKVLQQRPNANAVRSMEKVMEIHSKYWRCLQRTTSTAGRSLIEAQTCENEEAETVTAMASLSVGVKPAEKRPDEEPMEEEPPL
Sequence of Histone deacetylase 5 (Q9UQL6 whole entry): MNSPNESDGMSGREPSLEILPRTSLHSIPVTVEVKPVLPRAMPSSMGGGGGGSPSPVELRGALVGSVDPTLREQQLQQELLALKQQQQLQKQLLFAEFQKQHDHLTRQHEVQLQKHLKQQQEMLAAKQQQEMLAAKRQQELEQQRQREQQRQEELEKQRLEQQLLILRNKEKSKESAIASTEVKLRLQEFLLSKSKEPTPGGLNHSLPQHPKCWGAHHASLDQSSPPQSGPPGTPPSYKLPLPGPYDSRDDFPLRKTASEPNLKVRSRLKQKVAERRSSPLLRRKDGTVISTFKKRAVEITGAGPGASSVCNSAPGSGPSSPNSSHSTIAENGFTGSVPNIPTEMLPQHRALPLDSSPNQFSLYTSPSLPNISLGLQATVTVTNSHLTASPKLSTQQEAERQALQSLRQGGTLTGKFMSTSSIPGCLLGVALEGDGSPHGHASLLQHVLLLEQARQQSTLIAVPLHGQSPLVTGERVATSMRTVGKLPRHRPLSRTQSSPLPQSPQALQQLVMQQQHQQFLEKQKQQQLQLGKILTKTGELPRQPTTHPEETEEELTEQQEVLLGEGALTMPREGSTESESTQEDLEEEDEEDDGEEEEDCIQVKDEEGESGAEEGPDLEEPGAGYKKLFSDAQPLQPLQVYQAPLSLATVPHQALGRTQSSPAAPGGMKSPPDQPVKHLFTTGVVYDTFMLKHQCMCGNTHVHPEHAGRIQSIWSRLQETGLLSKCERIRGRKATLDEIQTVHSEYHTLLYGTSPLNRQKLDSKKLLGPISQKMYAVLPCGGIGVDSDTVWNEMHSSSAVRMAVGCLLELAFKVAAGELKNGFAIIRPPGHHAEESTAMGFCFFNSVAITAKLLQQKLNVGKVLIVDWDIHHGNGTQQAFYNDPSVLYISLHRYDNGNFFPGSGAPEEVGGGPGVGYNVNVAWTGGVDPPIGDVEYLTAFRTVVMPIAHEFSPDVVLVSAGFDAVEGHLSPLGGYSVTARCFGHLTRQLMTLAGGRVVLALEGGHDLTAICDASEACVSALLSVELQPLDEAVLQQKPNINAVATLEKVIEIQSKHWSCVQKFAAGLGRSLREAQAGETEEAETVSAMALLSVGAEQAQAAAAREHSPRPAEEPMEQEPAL
Sequence of Histone deacetylase 3 (O15379 whole entry): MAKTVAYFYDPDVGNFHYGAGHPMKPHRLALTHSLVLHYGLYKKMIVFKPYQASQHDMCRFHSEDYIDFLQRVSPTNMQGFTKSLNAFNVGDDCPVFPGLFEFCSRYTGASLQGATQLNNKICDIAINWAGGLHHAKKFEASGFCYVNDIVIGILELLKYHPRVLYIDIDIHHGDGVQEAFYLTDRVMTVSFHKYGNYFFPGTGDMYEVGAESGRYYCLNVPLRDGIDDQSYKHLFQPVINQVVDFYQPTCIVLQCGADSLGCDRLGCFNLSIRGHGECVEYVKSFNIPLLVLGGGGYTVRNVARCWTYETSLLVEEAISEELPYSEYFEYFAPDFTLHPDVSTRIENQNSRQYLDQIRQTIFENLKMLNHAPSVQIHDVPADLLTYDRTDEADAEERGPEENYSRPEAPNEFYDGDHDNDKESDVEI

## O=C(/C=C/c1ccc2c(c1)nc(CCc1ccccc1)n2CCN1CCCC1)NO
[1]
  MTD: 130 mg/kg
Mus musculus [2]
  Activity: 5.7%
[3]
  Ki: 20.6 nM
[4]
  bioavailability: 13%
HCT-116 [5]
  inhibition in vivo at 100 mg/kg: 43%
Mus musculus [6]
  Activity: 8.7%
HCT-116 [7]
  inhibition in vivo at 130 mg/kg: 89%
Histone deacetylase 3
  Ki: 12.5 nM
Histone deacetylase 8
  Ki: 82 nM
Histone deacetylase 11
  Ki: 12.8 nM
COLO 205
  IC50: 140 nM
Histone deacetylase 4
  Ki: 9.6 nM
Mus musculus [8]
  Activity: 0.5%
Histone deacetylase 5
  Ki: 17.2 nM
HCT-116 [9]
  inhibition in vivo at 70 mg/kg: 59%
HCT-116 [10]
  inhibition in vivo at 200 mg/kg: 78%
Histone deacetylase 9
  Ki: 19.2 nM
Mus musculus [11]
  Activity: Non-toxic
[12]
  Cmax: 920 nM

## Cl.O=C(/C=C/c1ccc2c(c1)nc(CCc1ccccc1)n2CCN1CCCC1)NO
[13]
  solubility: 1600 µg/mL
[14]
  logD: 2.1
